Test results taken from patent publication US20230322785A1, “ADENOSINE A2A AND A2B RECEPTOR DUAL ANTAGONISTS FOR IMMUNO-ONCOLOGY” (Merck Sharp & Dohme LLC, priority 2020, published 2023).

Biological target: T1, human A2A adenosine receptor (Homo sapiens, UniProt P29274)
T1 construct: expressed in transfected cells; host or cells: HEK293 or CHO cells
Test: A2A binding affinity, Method (B): scintillation proximity assay (SPA) with [3H]SCH58261
Details: membranes of HEK293 or CHO cells expressing the human receptor
Excerpt: Method (A) describes the procedure used to measure A2A binding affinity using radioligand binding. Method (B) describes the procedure used to measure A2A binding affinity using SPA technology. The method used to measure A2B binding affinity is also described below. The method used to determine the A2A IC50 value reported for each compound in the table is indicated next to the reported value. The A2B IC50 value measured using the A2B binding affinity assay is shown in the table next to the compound under the corresponding A2A value.
The A2A receptor affinity binding assay measured the amount of binding of a tritiated ligand with high affinity for the A2A adenosine receptor to membranes made from HEK293 or CHO cells recombinantly expressing the human A2A adenosine receptor, in the presence of varying concentrations of a compound of the invention. The data were generated using either filtration binding or a homogenous scintillation proximity assay (SPA).
Method (B): Measurement of A2A Binding Affinity Using SPA
Binding affinity using SPA was conducted as follows. Test compounds (50 nL) were dispensed into individual wells of a 384-well OptiPlate™ well (Perkin Elmer) by Echo® acoustic liquid transfer (Labcyte). 20 µL of 1.25 nM [^3H] SCH58261 ((7-(2-phenylethyl)-5-amino-2-(2-furyl)-pyrazolo-[4,3-e]-1,2,4-triazolo[1,5-c]pyrimidine)) in DPBS assay buffer (Dulbecco’s phosphate buffered saline without calcium and magnesium, ThermoFisher Scientific, Cat. No. A1285601) supplemented with 10 mM MgCl2 was added. A2A receptor-expressing membranes were incubated with 20 µg/mL adenosine deaminase (Roche, Cat. No. 10 102 105 001) for 15 min at room temperature. The receptor-expressing membranes were then combined with wheat germ agglutinin-coated yttrium silicate SPA beads (GE Healthcare, Cat. No. RPNQ0023) in a ratio of […] (w/w) and incubated for 30 min at room temperature. 30 µL of the membrane/bead mixture (0.25 µg and 25 µg per well respectively) were added to the 384-well OptiPlate™ well. To define total and non-specific binding, wells containing 1% DMSO or 1 µM CGS 15943 (Tocris Bioscience, Cat. No. 1699) respectively were also included in the experiment. The plate was incubated for 1 h at room temperature with agitation. The assay plate was then incubated for an h to allow the beads to settle before data were collected using a TopCount® (Perkin Elmer) scintillation counter. After normalization to total and non-specific binding, the percent effect at each compound concentration was calculated. The plot of percent effect versus the log of compound concentration was analyzed electronically using a 4-parameter logistic fit based on the Levenberg-Marquardt algorithm to generate IC50 values.

T1 sequence (P29274 whole entry): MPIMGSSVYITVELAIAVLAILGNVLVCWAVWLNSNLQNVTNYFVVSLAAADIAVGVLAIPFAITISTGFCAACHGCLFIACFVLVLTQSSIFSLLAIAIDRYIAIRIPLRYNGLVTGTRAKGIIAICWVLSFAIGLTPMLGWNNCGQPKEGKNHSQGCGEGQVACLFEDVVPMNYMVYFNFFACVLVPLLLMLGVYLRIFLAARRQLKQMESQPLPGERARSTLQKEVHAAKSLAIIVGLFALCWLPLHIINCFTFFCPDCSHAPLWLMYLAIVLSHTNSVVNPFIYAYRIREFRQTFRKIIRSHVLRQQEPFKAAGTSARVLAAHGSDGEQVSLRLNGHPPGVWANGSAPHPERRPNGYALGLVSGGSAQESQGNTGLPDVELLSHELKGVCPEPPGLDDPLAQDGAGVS

Row | Structure (SMILES) | IC50
1 | COc1cccc2c1nc(N)n1nc(CN(Cc3ccc(C(F)(F)F)cc3)S(C)(=O)=O)nc21 [Example 19.2, N-((5-amino-7-methoxy-[1,2,4]triazolo[1,5-c]quinazolin-2-yl)methyl)-N-(4-(trifluoromethyl)benzyl)methanesulfonamide] | 7.5 nM
2 | COc1cccc2c1nc(N)n1nc(CNC(=O)NCc3ccc(Cl)cc3)nc21 [Example 20.4, 1-((5-amino-7-methoxy-[1,2,4]triazolo[1,5-c]quinazolin-2-yl)methyl)-3-(4-chlorobenzyl)urea] | 5.7 nM
3 | COc1cccc(CN(Cc2nc3c4cccc(OC)c4nc(N)n3n2)CC2CC2)c1 [Example 16.15, 2-(((cyclopropylmethyl)(3-methoxybenzyl)amino)methyl)-7-methoxy-[1,2,4]triazolo[1,5-c]quinazolin-5-amine] | 3.5 nM
4 | COc1cccc2c1nc(N)n1nc(CN(Cc3ccc(OC(F)(F)F)cc3)CC3CC3)nc21 [Example 15.7, 2-(((cyclopropylmethyl)(4-(trifluoromethoxy)benzyl)amino)methyl)-7-methoxy-[1,2,4]triazolo[1,5-c]quinazolin-5-amine] | 3.9 nM
5 | COc1cccc2c1nc(N)n1nc(CN(Cc3ccc(OC(F)(F)F)cc3)S(=O)(=O)C(F)(F)F)nc21 [Example 19.4, N-((5-amino-7-methoxy-[1,2,4]triazolo[1,5-c]quinazolin-2-yl)methyl)-1,1,1-trifluoro-N-(4-(trifluoromethoxy)benzyl)methanesulfonamide] | 50.4 nM
6 | COc1cccc2c1nc(N)n1nc(CN(Cc3ccc(C(F)(F)F)cc3)CC(C)C)nc21 [Example 15.4, 2-((isobutyl(4-(trifluoromethyl)benzyl)amino)methyl)-7-methoxy-[1,2,4]triazolo[1,5-c]quinazolin-5-amine] | 4.2 nM
7 | COc1cccc2c1nc(N)n1nc(CN(CCC(C)C)Cc3ccc(C(F)(F)F)cc3)nc21 [Example 15.5, 2-((isopentyl(4-(trifluoromethyl)benzyl)amino)methyl)-7-methoxy-[1,2,4]triazolo[1,5-c]quinazolin-5-amine] | 101 nM
8 | C=CCN(Cc1ccc(C(F)(F)F)cc1)Cc1nc2c3cccc(OC)c3nc(N)n2n1 [Example 21.1, 2-((allyl(4-(trifluoromethyl)benzyl)amino)methyl)-7-methoxy-[1,2,4]triazolo[1,5-c]quinazolin-5-amine] | 11.1 nM
9 | COc1cccc2c1nc(N)n1nc(CNCc3cccc(C(F)(F)F)c3)nc21 [Example 8.5, 7-methoxy-2-(((3-(trifluoromethyl)benzyl)amino)methyl)-[1,2,4]triazolo[1,5-c]quinazolin-5-amine] | 11.2 nM
10 | COc1cccc2c1nc(N)n1nc(CN(Cc3cccnc3)CC3CC3)nc21 [Example 16.2, 2-(((cyclopropylmethyl)(pyridin-3-ylmethyl)amino)methyl)-7-methoxy-[1,2,4]triazolo[1,5-c]quinazolin-5-amine] | 5.3 nM
11 | COc1cccc2c1nc(N)n1nc(CNC(C)(C)c3ccccn3)nc21 [Example 7.3, 7-methoxy-2-(((2-(pyridin-2-yl)propan-2-yl)amino)methyl)-[1,2,4]triazolo[1,5-c]quinazolin-5-amine] | 18.5 nM
12 | COCCN(Cc1ccc(C(F)(F)F)cc1)Cc1nc2c3cccc(OC)c3nc(N)n2n1 [Example 15.15, 7-methoxy-2-(((2-methoxyethyl)(4-(trifluoromethyl)benzyl)amino)methyl)-[1,2,4]triazolo[1,5-c]quinazolin-5-amine] | 6.6 nM
13 | COc1cccc2c1nc(N)n1nc(CN(Cc3ccc(Br)cc3)CC3CC3)nc21 [Example 15.17, 2-(((4-bromobenzyl)(cyclopropylmethyl)amino)methyl)-7-methoxy-[1,2,4]triazolo[1,5-c]quinazolin-5-amine] | 3.2 nM
14 | COc1cccc2c1nc(N)n1nc(CN(Cc3ccc(OC4CCCCC4)nc3)CC3CC3)nc21 [Example 16.6, 2-((((6-(cyclohexyloxy)pyridin-3-yl)methyl)(cyclopropylmethyl)amino)methyl)-7-methoxy-[1,2,4]triazolo[1,5-c]quinazolin-5-amine] | 6.6 nM
15 | COc1cccc2c1nc(N)n1nc(CNCc3ccc(C(C)(C)C)cc3)nc21 [Example 7.6, 2-(((4-(tert-butyl)benzyl)amino)methyl)-7-methoxy-[1,2,4]triazolo[1,5-c]quinazolin-5-amine] | 4.3 nM
16 | COc1cccc2c1nc(N)n1nc(CN(CCC3CC3)Cc3ccc(C(F)(F)F)cc3)nc21 [Example 15.6, 2-(((2-cyclopropylethyl)(4-(trifluoromethyl)benzyl)amino)methyl)-7-methoxy-[1,2,4]triazolo[1,5-c]quinazolin-5-amine] | 7.1 nM
17 | COc1cccc2c1nc(N)n1nc(CN(Cc3ccc(OC(F)(F)F)cc3)CC3CCC3)nc21 [Example 15.10, 2-(((cyclobutylmethyl)(4-(trifluoromethoxy)benzyl)amino)methyl)-7-methoxy-[1,2,4]triazolo[1,5-c]quinazolin-5-amine] | 8.5 nM
18 | COc1cccc2c1nc(N)n1nc(CCN[C@H](C)C(F)(F)F)nc21 [Example 23.4, (R)-7-methoxy-2-(2-((1,1,1-trifluoropropan-2-yl)amino)ethyl)-[1,2,4]triazolo[1,5-c]quinazolin-5-amine] | 5.8 nM
19 | COc1cccc2c1nc(N)n1nc(CN(Cc3ccc(C(F)(F)F)cc3)C(=O)NC(C)C)nc21 [Example 20.2, 1-((5-amino-7-methoxy-[1,2,4]triazolo[1,5-c]quinazolin-2-yl)methyl)-3-isopropyl-1-(4-(trifluoromethyl)benzyl)urea] | 50.7 nM
20 | COc1cccc2c1nc(N)n1nc(CNC(C)c3ncc(-c4ccc(F)cc4)o3)nc21 (single isomer, unassigned) [Example 10.15, (S or R)-2-(((1-(5-(4-fluorophenyl)oxazol-2-yl)ethyl)amino)methyl)-7-methoxy-[1,2,4]triazolo[1,5-c]quinazolin-5-amine] | 44.3 nM
21 | COc1cccc2c1nc(N)n1nc(CN(Cc3cccc(Br)n3)CC3CC3)nc21 [Example 16.3, 2-((((6-bromopyridin-2-yl)methyl)(cyclopropylmethyl)amino)methyl)-7-methoxy-[1,2,4]triazolo[1,5-c]quinazolin-5-amine] | 14.6 nM
22 | COc1cccc2c1nc(N)n1nc(CNC(=O)CCc3cccc(C(F)(F)F)c3)nc21 [Example 2.5] | 25.8 nM
23 | COc1ccc(CCC(=O)NCc2nc3c4cccc(OC)c4nc(N)n3n2)cc1 [Example 2.4] | 7.5 nM
24 | COc1ccc(CN(Cc2nc3c4cccc(OC)c4nc(N)n3n2)CC2CC2)cc1 [Example 16.14, 2-(((cyclopropylmethyl)(4-methoxybenzyl)amino)methyl)-7-methoxy-[1,2,4]triazolo[1,5-c]quinazolin-5-amine] | 7.2 nM
25 | COc1cccc2c1nc(N)n1nc(CCN[C@H](C)c3ccc(C(F)(F)F)cc3)nc21 [Example 22.4, (R)-7-methoxy-2-(2-((1-(4-(trifluoromethyl)phenyl)ethyl)amino)ethyl)-[1,2,4]triazolo[1,5-c]quinazolin-5-amine] | 15.9 nM
26 | COc1cccc2c1nc(N)n1nc(CNC(C)(C)C(F)(F)F)nc21 [Example 10.10, 7-methoxy-2-(((1,1,1-trifluoro-2-methylpropan-2-yl)amino)methyl)-[1,2,4]triazolo[1,5-c]quinazolin-5-amine] | 4.8 nM
27 | COc1cccc2c1nc(N)n1nc(CN[C@H](C)C(F)(F)F)nc21 [Example 10.8, (R)-7-methoxy-2-(((1,1,1-trifluoropropan-2-yl)amino)methyl)-[1,2,4]triazolo[1,5-c]quinazolin-5-amine] | 3.9 nM
28 | COCCN(CCc1ccc(C(F)(F)F)cc1)Cc1nc2c3cccc(OC)c3nc(N)n2n1 [Example 15.14, 7-methoxy-2-(((2-methoxyethyl)(4-(trifluoromethyl)phenethyl)amino)methyl)-[1,2,4]triazolo[1,5-c]quinazolin-5-amine] | 16.5 nM
29 | COc1cccc2c1nc(N)n1nc(CC(=O)NCc3cccnc3)nc21 [Example 4.3, 2-(5-amino-7-methoxy-[1,2,4]triazolo[1,5-c]quinazolin-2-yl)-N-(pyridin-3-ylmethyl)acetamide] | 44.3 nM
30 | COc1cccc2c1nc(N)n1nc(CN(Cc3ccc(F)c(F)c3F)CC3CC3)nc21 [Example 16.17, 2-(((cyclopropylmethyl)(2,3,4-trifluorobenzyl)amino)methyl)-7-methoxy-[1,2,4]triazolo[1,5-c]quinazolin-5-amine] | 4.8 nM
